According to paper PMC12036814 (Angewandte Chemie (International Ed. in English), 2025):
pKd: −log10 of the molar value.

Experiments:
SCARB1 = target: T1, SCARB1 (Homo sapiens, UniProt Q8WTV0); assay: Microscale thermophoresis (MST) binding
T1 construct: purchased Hölzel Biotech SC1-H82E5
T1 sequence (Q8WTV0 1-552): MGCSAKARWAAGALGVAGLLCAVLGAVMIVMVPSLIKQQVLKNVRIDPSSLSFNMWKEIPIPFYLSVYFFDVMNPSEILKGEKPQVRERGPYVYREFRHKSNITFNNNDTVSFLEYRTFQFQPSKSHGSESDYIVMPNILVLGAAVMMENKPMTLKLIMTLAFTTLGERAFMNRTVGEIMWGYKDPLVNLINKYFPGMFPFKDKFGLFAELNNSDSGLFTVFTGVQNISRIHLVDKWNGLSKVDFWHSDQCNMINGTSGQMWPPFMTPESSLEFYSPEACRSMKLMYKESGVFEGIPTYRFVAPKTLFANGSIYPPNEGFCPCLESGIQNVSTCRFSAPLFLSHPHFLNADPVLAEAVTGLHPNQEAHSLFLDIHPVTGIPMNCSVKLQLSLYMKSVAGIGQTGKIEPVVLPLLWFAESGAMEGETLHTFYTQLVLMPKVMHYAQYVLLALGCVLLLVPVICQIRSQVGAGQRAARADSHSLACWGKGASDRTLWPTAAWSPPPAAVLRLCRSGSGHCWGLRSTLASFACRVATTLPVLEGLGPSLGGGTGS
Protocol: reaction was terminated by addition of 800 μL EtOAc+0.5% AcOH, 300 μL H2O and 100 μL internal standard (13,14-dihydro-15-ketoprostaglandin -d4, 300 pmol/sample, Cayman Chemical, Ann Arbor, USA, Cat# 10010606). Of the organic phase 600 μL was transferred into a fresh Eppendorf tube and the solvent removed in a SpeedVac. The residue was dissolved in 100 μL acetonitrile/ H2O (1:1) and measured with LC-MS/MS. Gradient: Solvent A = H2O + 0.1% formic acid, solvent B = acetonitrile + 0.5% formic acid, flow rate = 0 .4 mL/min, run length 6 min, gradient = 0 min 30% B, 1 min 30% B, 2 min 31.5% B, 2.1 min 95% B, 4 min 95% B, 4.1 min 30% B, 6 min 30% B. MS settings: Capillary = 3.0 kV, sampling cone = […], extraction cone […], source temperature = 100 °C, desolvat ion temperature = 350 °C, cone gas flow = 50.0 L/h, desolvation gas flow = 650.0 L/h, scan time = 0.250 s, inter-scan time = 0.020 s, mass range = 100 -800 Da. Masses of 15 -ketoprostaglandin (349.2 Da, collision energy = 21.0 eV), 13,14 -dihydro-15-ketoprostaglandin (351.2 Da, collision energy = 18.0 eV) and 13,14-dihydro-15-ketoprostaglandin (355.2 Da, collision energy = 10.0 eV) were set for MRM. The areas under the curve (AUC) were used to quantify 15 -keto-PGE2 and 13,14 -dihydro-15-keto-PGE2 levels by determining peak areas in relation to internal standard […]. The experiment was […]
Microscale thermophoresis (MST) was performed as follows: Monolith His -Tag Labeling Kit RED -tris-NTA 2nd Generation (NanoTemper Technologies, Munich, Germany, Cat# MO -L018) was used for KD determination as recommended by the purchaser. Briefly, SCARB1 ( Hölzel Biotech, Cologne, Germany, Cat# SC1-H82E5) concentration (50 nM) was adjusted in assay buffer and labelled by the RED -tris-NTA dye (100 nM). This mixture was added to compound dilution series (c = 1 mM to 30 nM) and measured using Monolith NT.115 (NanoTemper Technologies, Munich, Germany ). The experiment was performed once and analysed with the MO Affinity Analysis software (NanoTemper).
NUDT1 target validation efforts:
Recombinant NUDT1 expression & purification […]

AIFM1 = target: T2, AIFM1 (Homo sapiens, UniProt O95831); assay: Gel-based labelling of recombinant AIFM1 spiked into HEK-293 lysate; type: binding; conditions: 5 μM probe, AIFM1 spiked in HEK-293 lysate
T2 construct: made in house; host or cells: E. coli Rosetta2
T2 sequence (O95831 102-613): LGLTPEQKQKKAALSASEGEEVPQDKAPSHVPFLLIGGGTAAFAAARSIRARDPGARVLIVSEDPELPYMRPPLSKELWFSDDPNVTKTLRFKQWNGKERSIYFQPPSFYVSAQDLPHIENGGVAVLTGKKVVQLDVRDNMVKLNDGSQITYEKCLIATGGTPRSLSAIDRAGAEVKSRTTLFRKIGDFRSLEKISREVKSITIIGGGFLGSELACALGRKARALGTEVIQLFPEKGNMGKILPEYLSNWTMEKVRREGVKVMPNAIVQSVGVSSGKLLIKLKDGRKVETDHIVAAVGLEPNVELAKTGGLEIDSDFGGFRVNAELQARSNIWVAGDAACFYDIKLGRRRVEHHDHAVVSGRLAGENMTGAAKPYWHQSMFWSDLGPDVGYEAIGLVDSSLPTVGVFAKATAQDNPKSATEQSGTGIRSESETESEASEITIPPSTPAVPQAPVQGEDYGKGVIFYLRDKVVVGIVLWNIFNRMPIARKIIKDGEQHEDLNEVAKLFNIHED
Protocol: AIFM1 expression & purification
Recombinant AIFM1 was expressed in a Rosetta2 E. coli strain. Bacterial growth was conducted in LB media supplemented with riboflavin and FAD shaking at 37°C and 180 rpm. Expression was induced with 1.0 mM IPTG and incubated for further 16 h before harvesting. Cells were harvested on ice in PBS and cell pellets stored at -20°C. Cells were lysed by French press and the 6xHis-tagged constructs were purified by Immobilized Metal Affinity Chromatography using Ni Sepharose (6 Fast Flow, GE). The centrifugation-cleared bacterial lysate was bound to beads in binding buffer (200 mM NaCl, 20 mM Tris/Cl pH = 7.4). […]
For gel-based fluorescence labelling of recombinant AIFM1, 1.7 µM recombinant protein was spiked - in to PBS or PBS -diluted HEK293 cell lysate ( 100 µg per reaction sample). […]
Click Master-mix (8 µL, 100 µM TAMRA-azide, Baseclick, Neuried, Germany, Cat# BCFA-008-10, 500 µM BTTAA ligand, Jena Bioscience, Jena, Germany, CLK -067, 1 mM CuSO4) was added and the CuAAC reaction started by addition of 2 µL of aq. sodium ascorbate (c end= 2 mM). […] Fluorescence scanning was performed using a Las-3000 fluorescence darkbox (Fujifilm, Minato, Japan) with a Fujinon VRF 43LMD Lens, 605DF40 filter and 520 nm EPI excitation wavelength and loading controls were developed with Coomassie stain afterwards. […]

HEK‐293 cells = assay: Whole proteome analysis (LC-MS/MS, LFQ) of treated HEK-293 cells; conditions: 1 µM, 24 h, versus vehicle

Structure (SMILES) | pKd (SCARB1; acquisition software MO.Control, read-out: binding affinity (Kd)) | binding to SCARB1 (SCARB1; aggregation/precipitation at high compound concentrations) | gel-based labelling of recombinant AIFM1 by probe (AIFM1) | pattern of downregulated proteins and affected pathways (HEK‐293 cells)
C#CCCC1(CCN2CCN(c3cc4c(cc3F)c(=O)c(C(=O)O)cn4C3CC3)CC2)N=N1 [Cipro P1] | 3.40 | weak binding | strong fluorescent band corresponding to the molecular weight of AIFM1 | –
Cc1ccccc1CN1C(=O)C2=C(CCN(Cc3ccccc3)C2)N2CCN=C12 [ONC201] | – | – | – | strikingly similar to Ciprofloxacin treated cells
